Assay results from ChEMBL document CHEMBL5625199, “Discovery of triazole-bridged aryl adamantane analogs as an intriguing class of multifunctional agents for treatment of Alzheimer's disease” (Eur J Med Chem, 2023).
pIC50, pKi: −log10 of the molar value. The source made the active and inactive calls. The calls are words filed in the database; no cut-off is given here.

How the values were obtained:
Homo sapiens = species: Homo sapiens; experiment: Antagonist activity at NMDA receptor (unknown origin) relative to control; conditions: filed as antagonist, concentration not given here
[1] = Antagonist activity at NMDA receptor (unknown origin); parameters: species or system Homo sapiens
Acetylcholinesterase [2] = molecular target: T1, Acetylcholinesterase (Homo sapiens, UniProt P22303); experiment: Inhibition of human AChE
[3] = Selectivity index, ratio of IC50 for equine serum BuChE to IC50 for electric eel AChE
Cholinesterase = Cholinesterase (Equus caballus, UniProt P81908); experiment: Inhibition of equine serum BuChE using butyrylthiocholine iodide as substrate preincubated with enzyme for 10 mins followed by substrate addition and measured every 1 min for 20 mins by spectrophotometric analysis
in vitro = conditions: PAMPA
Description: Permeability of the compound at 25 ug/ml incubated or 18 hrs by PAMPA-BBB assay

[4] = Antagonist activity at GluN1-1a/GluN2B (unknown origin) expressed in xenopus laevis oocytes assessed as inhibition of glycine/glutamate-induced channel current incubated for 20s measured at holding potential of -70 mV by two-electrode voltage clamp technique; assay type: cell-based, Homo sapiens; conditions: Oocyte
Acetylcholinesterase [5] = molecular target: Acetylcholinesterase (Electrophorus electricus, UniProt O42275); experiment: Inhibition of electric eel AChE using acetylthiocholine iodide as substrate preincubated with enzyme for 10 mins followed by substrate addition and measured every 1 min for 20 mins by spectrophotometric analysis
Acetylcholinesterase [6] = molecular target: T1, Acetylcholinesterase; experiment: Inhibition of AChE (unknown origin)
Rattus norvegicus [7] = experiment: Antialzheimer activity against Abeta(1 to 42)-induced coginitive deficit Wistar rat model assessed as increase in total number of platform crossings at 5 mg/kg, po administered for 7 days by Morris water maze test; assay type: functional, organism-based; conditions: time 7.0 day
Rattus norvegicus [8] = experiment: Antialzheimer activity against scopalamine-induced amnesia Wistar rat model assessed as inhibition of cognition impairment by measuring increase in spontaneous alterations at 5 mg/kg, po administered for 7 days and on day 7 administered with scopolamine at 30 mins before drug administration by Y-maze test; assay type: functional, organism-based; conditions: time 7.0 day
Rattus norvegicus [9] = experiment: Antialzheimer activity against Abeta(1 to 42)-induced coginitive deficit Wistar rat model assessed as increase in time spent in the platform zone at 5 mg/kg, po administered for 7 days by Morris water maze test; assay type: functional, organism-based; conditions: time 7.0 day
[10] = Antagonist activity at GluN1-1b/GluN2C (unknown origin) expressed in xenopus laevis oocytes assessed as inhibition of glycine/glutamate-induced channel current incubated for 20s measured at holding potential of -70 mV by two-electrode voltage clamp technique; assay type: cell-based; conditions: Homo sapiens, Oocyte
[11] = molecular target: Amyloid-beta precursor protein (Homo sapiens) (UniProt P05067); experiment: Inhibition of AChE-induced Amyloid beta (1 to 42 residues) (unknown origin) aggregation at Abeta(1 to 42) to compound concentration ratio of 10:5 to 10:20 uM incubated for 48 hrs by ThT fluorescence method
[12] = Antagonist activity at GluN1-1b/GluN2D (unknown origin) expressed in xenopus laevis oocytes assessed as inhibition of glycine/glutamate-induced channel current incubated for 20s measured at holding potential of -70 mV by two-electrode voltage clamp technique; assay type: cell-based; conditions: Homo sapiens, Oocyte
SH-SY5Y = experiment: Neuroprotective activity against human SH-SY5Y cells assessed as reduction of Abeta(1 to 42)-induced cytotoxicity upto 10 uM pretreated with Abeta42 for 24 hrs followed by incubation with compound for 72 hrs by MTT assay; assay type: functional, cell-based
[13] = Antagonist activity at GluN1-1b/GluN2A (unknown origin) expressed in xenopus laevis oocytes assessed as inhibition of glycine/glutamate-induced channel current incubated for 20s measured at holding potential of -70 mV by two-electrode voltage clamp technique; assay type: cell-based; conditions: Homo sapiens, Oocyte
Rattus norvegicus [14] = experiment: Antialzheimer activity against Abeta(1 to 42)-induced coginitive deficit Wistar rat model assessed as increase in time spent in the platform zone at 10 mg/kg, po administered for 7 days by Morris water maze test; assay type: functional, organism-based; conditions: time 7.0 day
[15] = Antagonist activity at GluN1-1a/GluN2A (unknown origin) expressed in xenopus laevis oocytes assessed as inhibition of glycine/glutamate-induced channel current incubated for 20s measured at holding potential of -70 mV by two-electrode voltage clamp technique; assay type: cell-based; conditions: Homo sapiens, Oocyte
[16] = Antagonist activity at GluN1-1a/GluN2D (unknown origin) expressed in xenopus laevis oocytes assessed as inhibition of glycine/glutamate-induced channel current incubated for 20s measured at holding potential of -70 mV by two-electrode voltage clamp technique; assay type: cell-based; conditions: Homo sapiens, Oocyte
Rattus norvegicus [17] = experiment: Antialzheimer activity against Abeta(1 to 42)-induced coginitive deficit Wistar rat model assessed as increase in total number of platform crossings at 10 mg/kg, po administered for 7 days by Morris water maze test; assay type: functional, organism-based; conditions: time 7.0 day
HEK-293T [18] = experiment: Cytotoxicity against HEK293T cells assessed as reduction in cell viability at 0.3 to 30 uM measured after 44 hrs by WST-1 assay; assay type: toxicity, cell-based; conditions: human, dose 0.3-30 µM
HEK-293T [19] = experiment: Cytotoxicity against HEK293T cells assessed as reduction in cell viability at 100 uM measured after 44 hrs by WST-1 assay; assay type: toxicity, cell-based; conditions: human
[20] = Antagonist activity at GluN1-1a/GluN2C (unknown origin) expressed in xenopus laevis oocytes assessed as inhibition of glycine/glutamate-induced channel current incubated for 20s measured at holding potential of -70 mV by two-electrode voltage clamp technique; assay type: cell-based; conditions: Homo sapiens, Oocyte
[21] = Antagonist activity at GluN1-1b/GluN2B (unknown origin) expressed in xenopus laevis oocytes assessed as inhibition of glycine/glutamate-induced channel current incubated for 20s measured at holding potential of -70 mV by two-electrode voltage clamp technique; assay type: cell-based; conditions: Homo sapiens, Oocyte
Rattus norvegicus [22] = experiment: Antialzheimer activity against scopalamine-induced amnesia Wistar rat model assessed as inhibition of cognition impairment by measuring increase in spontaneous alterations at 2.5 to 10 mg/kg, po administered for 7 days and on day 7 administered with scopolamine at 30 mins before drug administration by Y-maze test; assay type: functional, organism-based; conditions: dose 2.5-10 mg/kg, time 7.0 day
[23] = molecular target: T2, Acetylcholinesterase (Rattus norvegicus) (UniProt P37136); experiment: Ex vivo inhibition of AChE activity in brain of scopalamine-induced amnesia Wistar rat model at 10 mg/kg, po administered for 7 days and on day 7 administered with scopolamine at 30 mins before drug administration; assay type: functional, organism-based; conditions: time 7.0 day
T2 sequence (whole entry): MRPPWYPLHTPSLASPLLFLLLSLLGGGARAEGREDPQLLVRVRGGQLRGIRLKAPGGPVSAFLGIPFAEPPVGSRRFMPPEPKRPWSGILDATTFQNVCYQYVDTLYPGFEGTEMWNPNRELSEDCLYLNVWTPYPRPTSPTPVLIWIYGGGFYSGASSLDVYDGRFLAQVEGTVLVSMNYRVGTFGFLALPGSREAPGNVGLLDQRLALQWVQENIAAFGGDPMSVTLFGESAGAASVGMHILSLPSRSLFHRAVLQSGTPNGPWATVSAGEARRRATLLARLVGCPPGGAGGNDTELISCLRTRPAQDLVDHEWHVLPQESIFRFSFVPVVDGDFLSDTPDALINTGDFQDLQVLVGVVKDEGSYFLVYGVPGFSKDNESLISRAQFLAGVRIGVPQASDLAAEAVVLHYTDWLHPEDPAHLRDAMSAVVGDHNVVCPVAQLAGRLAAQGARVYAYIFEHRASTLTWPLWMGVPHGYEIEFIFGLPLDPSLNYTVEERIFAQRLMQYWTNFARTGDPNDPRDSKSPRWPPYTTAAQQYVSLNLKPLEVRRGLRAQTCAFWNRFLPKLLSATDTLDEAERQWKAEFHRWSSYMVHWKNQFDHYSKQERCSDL

Rattus norvegicus [24] = experiment: Antialzheimer activity against scopalamine-induced amnesia Wistar rat model assessed as inhibition of cognition impairment by measuring increase in spontaneous alterations at 10 mg/kg, po administered for 7 days and on day 7 administered with scopolamine at 30 mins before drug administration by Y-maze test; assay type: functional, organism-based; conditions: time 7.0 day
[25] = molecular target: Amyloid-beta precursor protein (Homo sapiens) (UniProt P05067); experiment: Inhibition of self-induced Amyloid beta (1 to 42 residues) (unknown origin) aggregation at Abeta(1 to 42) to compound concentration ratio of 10:5 to 10:20 uM incubated for 48 hrs by ThT fluorescence method
[26] = molecular target: T2, Acetylcholinesterase (Rattus norvegicus); experiment: Ex vivo inhibition of AChE activity in brain of scopalamine-induced amnesia Wistar rat model at 2.5 to 10 mg/kg, po administered for 7 days and on day 7 administered with scopolamine at 30 mins before drug administration; assay type: functional, organism-based; conditions: dose 2.5-10 mg/kg, time 7.0 day

Cholinesterase, sequence (P81908 whole entry): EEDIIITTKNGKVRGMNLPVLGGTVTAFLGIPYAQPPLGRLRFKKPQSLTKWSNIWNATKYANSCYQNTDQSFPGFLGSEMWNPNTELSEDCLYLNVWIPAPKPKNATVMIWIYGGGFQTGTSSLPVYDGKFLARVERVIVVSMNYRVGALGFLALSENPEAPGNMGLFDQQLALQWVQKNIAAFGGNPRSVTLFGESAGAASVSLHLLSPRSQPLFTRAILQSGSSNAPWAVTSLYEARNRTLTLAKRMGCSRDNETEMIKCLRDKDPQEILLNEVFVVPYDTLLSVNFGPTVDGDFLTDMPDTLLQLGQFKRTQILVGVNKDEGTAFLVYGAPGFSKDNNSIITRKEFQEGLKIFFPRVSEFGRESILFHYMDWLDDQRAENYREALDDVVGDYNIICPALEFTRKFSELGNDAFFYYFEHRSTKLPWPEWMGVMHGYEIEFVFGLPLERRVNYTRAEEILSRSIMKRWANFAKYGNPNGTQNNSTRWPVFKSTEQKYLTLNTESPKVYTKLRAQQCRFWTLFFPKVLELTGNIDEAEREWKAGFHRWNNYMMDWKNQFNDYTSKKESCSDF
Acetylcholinesterase (Electrophorus electricus, UniProt O42275), sequence (O42275 whole entry): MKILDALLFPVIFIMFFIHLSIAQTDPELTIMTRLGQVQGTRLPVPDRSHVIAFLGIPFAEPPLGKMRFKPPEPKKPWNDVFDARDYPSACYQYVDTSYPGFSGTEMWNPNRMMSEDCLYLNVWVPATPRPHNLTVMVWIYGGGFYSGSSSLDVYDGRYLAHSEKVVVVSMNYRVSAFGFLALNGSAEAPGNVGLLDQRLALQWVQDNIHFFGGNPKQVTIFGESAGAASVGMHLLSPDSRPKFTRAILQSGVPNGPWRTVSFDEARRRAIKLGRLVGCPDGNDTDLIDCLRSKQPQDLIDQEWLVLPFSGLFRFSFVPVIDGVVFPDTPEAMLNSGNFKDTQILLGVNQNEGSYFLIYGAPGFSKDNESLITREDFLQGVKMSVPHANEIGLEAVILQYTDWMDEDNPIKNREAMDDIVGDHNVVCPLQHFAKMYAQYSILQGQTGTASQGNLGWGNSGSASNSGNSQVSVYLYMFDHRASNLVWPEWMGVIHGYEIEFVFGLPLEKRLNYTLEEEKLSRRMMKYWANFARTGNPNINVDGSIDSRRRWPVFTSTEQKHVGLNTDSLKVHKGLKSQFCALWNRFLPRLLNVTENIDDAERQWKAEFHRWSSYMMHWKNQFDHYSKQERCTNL
T1 sequence (P22303 whole entry): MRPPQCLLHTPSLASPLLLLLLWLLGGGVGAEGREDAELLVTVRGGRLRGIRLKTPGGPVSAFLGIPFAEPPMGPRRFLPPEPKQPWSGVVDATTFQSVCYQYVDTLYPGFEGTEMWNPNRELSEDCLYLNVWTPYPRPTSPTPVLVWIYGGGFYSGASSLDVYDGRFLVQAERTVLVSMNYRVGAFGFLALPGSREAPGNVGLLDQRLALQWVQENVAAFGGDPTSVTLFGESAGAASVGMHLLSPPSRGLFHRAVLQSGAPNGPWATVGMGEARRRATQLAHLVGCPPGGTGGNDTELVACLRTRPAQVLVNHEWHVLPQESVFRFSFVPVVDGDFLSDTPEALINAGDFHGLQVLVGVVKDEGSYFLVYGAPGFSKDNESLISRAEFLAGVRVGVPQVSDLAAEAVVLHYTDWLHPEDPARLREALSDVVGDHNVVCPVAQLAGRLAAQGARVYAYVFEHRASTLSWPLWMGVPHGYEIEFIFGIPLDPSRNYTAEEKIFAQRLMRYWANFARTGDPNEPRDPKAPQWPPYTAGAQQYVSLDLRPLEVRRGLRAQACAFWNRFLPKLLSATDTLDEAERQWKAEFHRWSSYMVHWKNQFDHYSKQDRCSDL
Amyloid-beta precursor protein (Homo sapiens), sequence (P05067 whole entry, the tested form may be a part): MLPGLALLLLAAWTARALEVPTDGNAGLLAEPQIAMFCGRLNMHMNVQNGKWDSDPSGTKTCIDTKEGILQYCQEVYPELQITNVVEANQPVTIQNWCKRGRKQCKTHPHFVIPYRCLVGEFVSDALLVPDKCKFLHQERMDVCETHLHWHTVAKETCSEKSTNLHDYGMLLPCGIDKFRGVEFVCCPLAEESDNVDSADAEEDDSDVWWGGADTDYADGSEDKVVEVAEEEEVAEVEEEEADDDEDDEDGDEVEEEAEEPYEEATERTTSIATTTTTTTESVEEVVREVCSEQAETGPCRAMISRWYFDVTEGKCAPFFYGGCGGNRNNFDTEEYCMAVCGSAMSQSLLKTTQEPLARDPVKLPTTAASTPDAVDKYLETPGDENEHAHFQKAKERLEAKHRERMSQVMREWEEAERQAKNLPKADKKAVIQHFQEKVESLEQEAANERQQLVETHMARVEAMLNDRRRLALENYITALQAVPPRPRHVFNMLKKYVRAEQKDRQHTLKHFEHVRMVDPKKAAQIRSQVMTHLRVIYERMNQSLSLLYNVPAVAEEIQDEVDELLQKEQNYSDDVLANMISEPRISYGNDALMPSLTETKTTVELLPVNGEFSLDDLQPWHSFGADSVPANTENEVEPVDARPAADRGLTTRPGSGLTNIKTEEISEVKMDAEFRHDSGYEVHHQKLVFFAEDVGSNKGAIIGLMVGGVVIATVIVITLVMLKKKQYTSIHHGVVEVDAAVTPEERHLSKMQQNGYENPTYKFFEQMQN

Row | SMILES | Ratio IC50 [3] | pIC50 (Cholinesterase) | Papp at 18 h, 25 ug/ml (in vitro) | pIC50 [4] | pIC50 (Acetylcholinesterase [5]) | other results
1 | c1ccc(CCNC23CC4CC(CC(C4)C2)C3)cc1 |  |  |  |  |  | inhibition (Homo sapiens): 89.5%
2 | COc1ccc2nc3c(c(NCCCCCNC(=S)N[C@]45CC6C[C@@H](C[C@@H](C6)C4)C5)c2c1)CCCC3 |  |  |  |  |  | pKi [1]: 5.74; pIC50 (Acetylcholinesterase [2]): 6.33
3 | Brc1ccc(Cn2cc(CNC3CCCCCC3)nn2)cc1 | 31.4 | 4.76 | 6.72 ×10⁻⁶ cm/s | 4.42 | 6.26 | pIC50 (Acetylcholinesterase [2]): 6.21
4 | O=[N+]([O-])c1ccc(Cn2cc(CNC3CCCCCC3)nn2)cc1 | 4.14 | 4.72 | 6.31 ×10⁻⁶ cm/s | 3.94 | 5.33 | 
5 | Cc1ccc(-c2cn(Cc3ccc4ccccc4c3)nn2)cc1C(=O)NCCN1CCOCC1 |  |  |  |  |  | pIC50 (Acetylcholinesterase [6]): 5.14
6 | COc1cc2c(cc1OC)C(=O)C(CC1CCN(Cc3ccccc3)CC1)C2 (configuration not stated) |  |  |  |  |  | Activity (Rattus norvegicus [7]): Active; Activity (Rattus norvegicus [8]): Active; Activity (Rattus norvegicus [9]): Active
7 | Cc1ccc(Cn2cc(CNC34CC5CC(CC(C5)C3)C4)nn2)cc1 | 17.8 | 5.22 | 7.48 ×10⁻⁶ cm/s | 3.71 | 6.47 | 
8 | CC(C)c1ccc(Cn2cc(CNC34CC5CC(CC(C5)C3)C4)nn2)cc1 | 9.79 | 5.11 | 7.63 ×10⁻⁶ cm/s | 4.10 | 6.10 | 
9 | Clc1ccc(Cn2cc(CNC3CCCCCC3)nn2)cc1 | 27.1 | 4.78 | 6.84 ×10⁻⁶ cm/s |  | 6.22 | pIC50 (Acetylcholinesterase [2]): 6.03
10 | O=[N+]([O-])c1ccc(Cn2cc(CNC34CC5CC(CC(C5)C3)C4)nn2)cc1 | 5.93 | 5.02 | 6.83 ×10⁻⁶ cm/s | 4.66 | 5.79 | 
11 | Fc1ccc(Cn2cc(CNC34CC5CC(CC(C5)C3)C4)nn2)cc1 | 16.9 | 5.49 | 7.75 ×10⁻⁶ cm/s |  | 6.71 | 
12 | c1ccc(CNC23OC4C5C6CC(C7C6C4C72)C53)cc1 (configuration not stated) |  |  |  |  |  | pIC50 [1]: 5.53
13 | c1ccc(Cn2cc(CNC34CC5CC(CC(C5)C3)C4)nn2)cc1 | 13.1 | 5.33 | 6.95 ×10⁻⁶ cm/s |  | 6.44 | 
14 | c1ccc(Cn2cc(CNC3CCCCCC3)nn2)cc1 | 8.02 | 4.94 | 7.2 ×10⁻⁶ cm/s |  | 5.85 | 
15 | Fc1ccc(Cn2cc(CNC3CCCCCC3)nn2)cc1 | 5.75 | 4.98 | 8.42 ×10⁻⁶ cm/s | 4.01 | 5.74 | 
16 | CC(C)c1ccc(Cn2cc(CNC3CCCCCC3)nn2)cc1 | 10.3 | 4.80 | 7.24 ×10⁻⁶ cm/s | 3.66 | 5.82 | 
17 | Cc1ccc(Cn2cc(CNC3CCCCCC3)nn2)cc1 | 15.8 | 4.71 | 7.35 ×10⁻⁶ cm/s | 4.20 | 5.91 | 
18 | Clc1ccc(Cn2cc(CNC34CC5CC(CC(C5)C3)C4)nn2)cc1 | 28.1 | 5.42 | 8.24 ×10⁻⁶ cm/s | 5.30 | 6.87 | pIC50 [10]: 4.28; inhibition [11]: Dose-Dependent Effect; pIC50 [12]: 3.62; Activity (SH-SY5Y): Active; pIC50 [13]: 3.85; Activity (Rattus norvegicus [14]): Active; pIC50 [15]: 3.89; pIC50 [16]: 3.10; Activity (Rattus norvegicus [17]): Active; Activity (HEK-293T [18]): Non-Toxic; Activity (HEK-293T [19]): Toxic; pIC50 [20]: 3.84; pIC50 [21]: 5.54; pIC50 (Acetylcholinesterase [2]): 6.88; Activity (Rattus norvegicus [22]): Dose-Dependent Effect; inhibition [23]: Active; Activity (Rattus norvegicus [24]): Active; inhibition [25]: Dose-Dependent Effect; inhibition [26]: Dose-Dependent Effect
19 | COc1ccc2c(c1)c(=O)c1ccccc1n2Cc1cn(Cc2ccc(Cl)cc2)nn1 |  |  |  |  |  | pIC50 (Acetylcholinesterase [6]): 5.14
20 | F[C@]12CC3C[C@](NCCCCCNc4c5c(nc6cc(Cl)ccc46)CCCC5)(C[C@H](C1)c1ccccc13)C2 |  |  |  |  |  | pIC50 [1]: 6.05
